According to patent publication US20100190982A1, “PROCESS FOR THE PREPARATION OF LAMIVUDINE FORM I” (priority 2007, published 2010):
Read-outs that look alike come from different tables or passages of the source.

Assays:
[1] = as stated in U.S. Pat. No. 5,905,082, cited from earlier work
[2] = Drying of Form I crystals at 80° C. (under reduced pressure), polymorphic change; type: physicochemical; settings: for conversion of Form I to Form II on drying: drying at 80° C. (under reduced pressure)
Method: (§1) Therefore our endeavour was to prepare Lamivudine polymorph Form I, which is storage stable and remains unchanged during preparation of solid doses form. […] (under reduced pressure). Data has been generated up to 72 h drying at 80° C.
In the present invention, the Lamivudine polymorphic Form I obtained is 100% pure.

[3] = Grinding / milling of Form I crystals, polymorphic change; type: physicochemical
Method: as §1

[4] = Stability testing at 60° C.; type: physicochemical; settings: two months
[5] = Storage of Form I crystals, polymorphic change; type: physicochemical
Method: as §1

Row | SMILES | relative stability of polymorphic form [1] | conversion of Form I to Form II on drying [2] | conversion of Form I to Form II on drying ([2]; listed as Lamivudine polymorphic Form I) | polymorphic change on drying ([2]; up to 72 h drying at 80° C. (under reduced pressure)) | change in polymorphic form on grinding ([3]; grinded neat for 5-15 min at 20-30° C.) | chemical degradation in stability testing [4] | polymorphic change in stability testing [4] | relative stability of polymorphic form ([1]; listed as Form I crystals) | conversion of Form I to Form II in pharmaceutical unit operations ([1]; milling/grinding) | conversion to Form II when milled/grinded ([3]; milled/grinded) | conversion to Form II on storage [5]
1 | Nc1ccn([C@@H]2CS[C@H](CO)O2)c(=O)n1 [Form II, Lamivudine] | more stable polymorphic form |  |  |  |  |  |  |  |  |  | 
2 | Nc1ccn([C@@H]2CS[C@H](CO)O2)c(=O)n1 [Lamivudine Form I crystals prepared by the process of instan] |  | do not convert to Form II | does not change into other polymorphic form | no polymorphic change has been observed | no change in polymorphic form has been observed | neither chemical degradation | nor polymorphic change was observed |  |  |  | 
3 | Nc1ccn([C@@H]2CS[C@H](CO)O2)c(=O)n1 [Lamivudine polymorphic Form I prepared by crystallisation fr] |  | partially converted into Form II |  |  |  |  |  | less stable | may cause conversion of Form I to Form II | partial conversion to Form II was observed | partially converted into Form II
